Source: patent US20220153746A1, “NITROGEN OXIDE-DONATING PDE-5 AND/OR PDE-6 INHIBITOR COMPOUNDS, AND USES THEREOF” (ILDONG PHARMACEUTICAL CO., LTD., priority 2020, published 2022)

Key:
[1] = target: human PDE-6C (Homo sapiens, UniProt P51160); assay: Human PDE-6C inhibition assay (fluorescence polarization, FAM-cGMP); assay type: biochemical; conditions: read-out: IC50 (μM) PDE6C
[2] = Metabolic stability in human liver microsomes; assay type: in vitro ADME; conditions: 37° C., 0-60 minutes
Description: This example illustrates the metabolic stability of selected compounds in human liver microsomes samples.
Both test and control compound solutions were prepared by diluting 5 μL of the respective stock solutions (10 mM in DMSO) containing either the test or control compound with 495 μL of acetonitrile (ACN) to give intermediate solutions with concentrations of 100 μM (99% ACN).
β-Nicotinamide adenine dinucleotide phosphate tetrasodium salt (NADPH.4Na) was purchased from BONTAC (cat. No. BT04). The NADPH working solution (10 unit/mL) was prepared by combining the appropriate amount of NADPH powder and a MgCl2 solution (10 mM) to give final concentration in the reaction system of 1 unit/mL.
The appropriate concentrations of the microsome working solutions were prepared in 100 mM potassium phosphate buffer.
Cold (4° C.) acetonitrile solution containing 200 ng/mL tolbutamide and 200 ng/mL labetalol (internal standard) was used as the stop solution.
Liver microsomes solution was diluted to 0.56 mg/mL in 100 mM phosphate buffer, and 445 μL of this solution was transferred into pre-warmed (10 minutes) “incubation” plates T60 and NCF60; the “incubation” plates T60 and NCF60 were pre-warmed for 10 minutes at 37° C. with constant shaking.
54 μL of the liver microsome solutions was transferred to the blank plate, followed by addition of 6 μL of the NAPDH cofactor solution and 180 μL of the quenching solution to the same blank plate.
5 μL of the compound working solution (100 μM concentration) was next added to into the “incubation” plates (T60 and NCF60) containing microsomes and mixed 3 times thoroughly. For the NCF60 plate, 50 μL of the buffer solution was added, mixed 3 times thoroughly, and incubated at 37° C. for 60 minutes under constant shaking.
In the “Quenching” plate at T0 (T=0 min), 180 μL of quenching solution and 6 μL of the NAPDH cofactor solution were added, and the resulting plate was chilled to prevent evaporation.
In the T60 plate, after it was thoroughly mixed, 54 μL of the mixture was immediately transferred to the “quenching” plate for the 0-minute time point, followed by addition of 44 μL of NAPDH cofactor solution to the incubation plate (T60). The resulting mixture was then incubated at 37° C. for 60 minutes under constant shaking. At time points of 5, 10, 20, 30 and 60 minutes, 180 μL of the quenching solution was added to the “quenching” plates, followed by serial transfer of 60 μL of the mixture (per time point) from the T60 plate to the “Quenching” plates.
For the NCF60 plates, 60 μL of the sample solution was transferred from the NCF60 incubation plate to the “Quenching” plate containing quenching solution at T=60 min time point. […]

[3] = tested on: human plasma proteins; assay: Plasma protein binding assay (equilibrium dialysis); assay type: in vitro ADME; conditions: 2 μM, dialysis 4 hours at 37° C.
Description: (§1) The dialysis device used in this example is a 96-well equilibrium dialysis plate (Cat #1006, HT Dialysis LLC, Gales Gerry, CT), and HTD 96 a/b dialysis membrane strips (Cat #1101, MWCO 12-14 kDa, HT Dialysis LLC). The dialysis device was assembled following the manufacturer's instructions.
(§2) The dialysis membrane strips were soaked in ultra-pure water at room temperature for approximately 1 hour. Each membrane strip containing 2 membranes was separated and soaked in 20:80 ethanol/water (v/v) for approximately 20 minutes, after which they were ready for used or were stored in the solution at 2-8° C. for up to a month. Prior to experiment, the membrane was rinsed and soaked for 20 minutes in ultra-pure water.
(§3) On the day of the experiment, the plasma was thawed by running under col tap water and centrifuged at 3220 rpm for 5 minutes to remove any clos. The pH value of the resulting plasma was checked. Only plasma with pH value with 7.0-8.0 could be used.
(§4) Both test and control compounds were dissolved in DMSO to achieve 10 mM stock solutions. Working solutions (400 μM) if test and control compounds were prepared by diluting 10μ of stock solutions with 240 μL of DMSO. Loading matrix solutions (2 μM) of both test and control compounds were prepared by diluting 5 μL of working solutions with 995 μL of blank matrix.
(§5) To prepare the loading matrix containing the test compound or control compounds, aliquots of either test compound working solutions or control compound working solution were spiked into blank matrix to achieve final test concentrations. The concentration of organic solvent in the final solutions were no more than 1% (normally 0.5%). The samples were mixture thoroughly before being used.
(§6) To prepare the time zero (T0) samples to be used for recovery determinations. 50 μL aliquots of loading matrix solution were transferred in triplicate to the sample collection plate. The samples were immediately matched with opposite blank buffer to obtain a final volume of 100 μL of 1:1 matrix/dialysis buffer (v/v) in each well. 500 μL of stop solution were added to these T0 samples. They were then stored at 2-8° C. pending further processes along with other post-dialysis samples.
(§7) To load the dialysis device, an aliquot of 150 μL of the loading matrix was transferred to the donor side of each dialysis well in triplicate, and 150 μL of the dialysis buffer was loaded to the received side of the well. The dialysis was placed in humidified incubator at 37° C. with 5% CO2 on a shaking platform that rated slowly (about 100 rpm) for 4 hours.
(§8) At the end of the dialysis, aliquots of 50 μL of samples were taken from both the buffer side and the matrix side of the dialysis deice. These samples were transferred into new 96-well plates (the sample collection plates). Each sample was mixed with an equal volume of opposite blank matrix (buffer or matrix) to reach a final volume of 100 μL of 1:1 matrix/dialysis buffer (v/v) in each well. All samples were further processed by adding 500 μL of stop solution containing internal standards. The mixture was vortexed and centrifuged at 4000 rpm for about 20 minutes. An aliquot of 100 μL of supernatant of all the samples were then removed for LC-MS/MS analysis.
(§9) The single blank samples were prepared by transferring 50 μL of blank matrix to a 96 well plate and adding 50 μL of blank PBS buffer to each well. The blank plasma must match the species of plasma used in the plasma side of the well. Then the matrix-matched samples were further processed by adding 500 μL of stop solution containing internal standards, following the same sample processing method as the dialysis samples.

[4] = as above; assay type: in vitro ADME; conditions: human plasma, dialysis 4 hours at 37° C.
Description: as §1, §2, §3, §4, §5, §6, §7, §8, §9

[5] = target: human PDE-5A1 (Homo sapiens, UniProt O76074); assay: Human PDE-5A1 inhibition assay (fluorescence polarization, FAM-cGMP); assay type: biochemical; conditions: read-out: IC50 (μM) PDE5A1

Sequence of human PDE-6C (P51160 whole entry): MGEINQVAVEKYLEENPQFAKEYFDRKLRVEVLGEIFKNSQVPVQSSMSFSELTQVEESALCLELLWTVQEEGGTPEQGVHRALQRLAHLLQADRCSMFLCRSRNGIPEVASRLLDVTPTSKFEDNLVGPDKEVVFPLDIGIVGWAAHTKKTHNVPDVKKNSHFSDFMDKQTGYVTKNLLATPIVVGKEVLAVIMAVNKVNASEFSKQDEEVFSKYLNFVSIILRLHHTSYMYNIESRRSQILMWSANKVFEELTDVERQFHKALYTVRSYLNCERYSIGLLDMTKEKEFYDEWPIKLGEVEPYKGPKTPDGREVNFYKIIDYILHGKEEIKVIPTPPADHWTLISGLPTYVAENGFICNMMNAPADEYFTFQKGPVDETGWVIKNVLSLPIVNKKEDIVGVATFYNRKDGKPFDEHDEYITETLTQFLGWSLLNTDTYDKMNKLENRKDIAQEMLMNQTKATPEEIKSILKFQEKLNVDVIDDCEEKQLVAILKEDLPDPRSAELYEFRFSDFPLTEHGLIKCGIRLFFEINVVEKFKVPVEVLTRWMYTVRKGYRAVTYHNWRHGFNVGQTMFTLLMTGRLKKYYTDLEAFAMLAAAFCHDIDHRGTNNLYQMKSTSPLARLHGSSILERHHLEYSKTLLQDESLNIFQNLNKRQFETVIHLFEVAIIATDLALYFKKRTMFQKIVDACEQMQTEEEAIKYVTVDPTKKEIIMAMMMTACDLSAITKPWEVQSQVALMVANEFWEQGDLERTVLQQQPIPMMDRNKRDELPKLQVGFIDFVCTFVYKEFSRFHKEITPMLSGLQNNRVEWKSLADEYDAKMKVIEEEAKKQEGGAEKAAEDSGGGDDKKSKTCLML

In the case of `CCCc1nn(C)c2c(=O)[nH]c(-c3cc(S(=O)(=O)N4CC(NCCCO[N+](=O)[O-])C4)ccc3OCC)nc12` [Compound 22, 3-((1-((4-ethoxy-3-(1-methyl-7-oxo-3-propyl-6,7-dihydro-1H-pyrazolo[4,3-d]pyrimidin-5-yl)phenyl)sulfonyl)azetidin-3-yl)amino)propyl nitrate], the IC50 [1] is reported as under 0.01 µM, the CLint scaled at 1 µM [2] is reported as 358 mL/min/kg and the “% Bound” value [3] is reported as 97.53%. The fraction unbound at 4 h, 2 µM [4] was 0.0247 and the IC50 [5] was under 0.01 µM.
